This note sets out measurements from patent US20230103965A1, “NOVEL ACTIVATORS OF THE LIPIDATING TRANSPORTER ATP BINDING CASSETTE PROTEIN TYPE 1 (AB-CA1) AND THERAPEUTIC USES THEREOF” (RAMOT AT TEL-AVIV UNIVERSITY LTD., priority 2020, published 2023).

pEC50, pKd: −log10 of the molar value.

One may read the EC50 as the midpoint of the concentration-response curve. A low value points to a more potent agent. One may read the pEC50 as the EC50 on a negative log10 scale, so that one unit is a factor of ten. Usually pKd stands for the negative decadic logarithm of the Kd, by convention in mol/L. A high value points to a small Kd.

In the first series the test system is apoE4 astrocytic cell line. The experiment in a line: Cellular viability / cytotoxicity of the hits. Particulars: 50 μM; Table 2. It is filed as cell-based, Rodent. On the procedure: FIG. 10: Effects of test compounds (HTS hits) on cellular viability. Experiments were performed on apoE4 astrocytic cell line in the presence of 50 μM of the indicated compounds. Viability was measured microscopically and by measurements of total cellular protein. (ii) Measurements of cytotoxicity of the hits.
`Cc1nn(CC(=O)c2ccc(Br)s2)c(C)c1[N+](=O)[O-]` [Hit #3]: the “Viability Rodent Astrocytes” value is “Normal”.
Still for that read-out and setting: in the case of `CC(C)(C)C(=O)COC(=O)c1ccccc1SCc1cc(-c2ccco2)on1` [Hit #4] it was “Normal”; in that of `O=[N+]([O-])c1ccc(N2CCCCC2)c2nonc12` [Hit #7], “Normal”; in that of `C[C@]12CC[C@@H](O)CC1CCC1C2CC[C@](C)(C(=O)O)C1/C=C1/Nc2ccccc2C1=O` (some centres unmarked) [Hit #12], “Normal”.
The same measure, in the same setting: in the case of `CSC(SC)=C1CC/C(=C/c2ccc(N(C)C)cc2)C1=O` [Hit #14] it was “Normal”.

Still in this series, the particulars now being: 50 μM; Table 4.
On to `Cc1nn(CC(=O)c2ccc(Br)s2)c(C)c1[N+](=O)[O-]` [Hit #3], for which the “Viability Rodent Astrocytes” value is given as “Normal”.
Regarding `CC(C)(C)C(=O)COC(=O)c1ccccc1SCc1cc(-c2ccco2)on1` [Hit #4], the “Viability Rodent Astrocytes” value is “Normal”.
Still for that read-out and setting: in the case of `O=[N+]([O-])c1ccc(N2CCCCC2)c2nonc12` [Hit #7] it was “Normal”.
Still for that read-out and setting: in the case of `C[C@]12CC[C@@H](O)CC1CCC1C2CC[C@](C)(C(=O)O)C1/C=C1/Nc2ccccc2C1=O` (some centres unmarked) [Hit #12] it was “Normal”; in that of `CSC(SC)=C1CC/C(=C/c2ccc(N(C)C)cc2)C1=O` [Hit #14], “Normal”.

The test system of a further series is Human Astrocytes. The experiment in a line: Cholesterol efflux (apoE4 lipidation) assay, BODIPY-cholesterol translocation to apoE4. It is filed as cell-based. Particulars: Astrocyte; Human astrocytes, efflux to apoE4; Table 2. On the procedure:
Cholesterol efflux assay in HTS. CCF-STTG1 cells were plated in 384-well plates containing 50 μL/well RPMI supplemented with 10% FBS at a density of 5×10^3 cells/well, using a Multidrop 384 Reagent Dispenser (Thermo Scientific), and incubated for 48 hr. Cells were washed twice with 50 μl PBS using an EL406 Microplate Washer Dispenser (BioTek, Winooski, Vt., USA) before being labeled with 50 μl of 10 μM BODIPY-cholesterol+100 μM cyclodextrin (CD) in RPMI 1640 medium containing 0.2% BSA. The labeling medium was added using in a Washer Dispenser II (GNF, San Diego, Calif., USA). Plates were transferred automatically to a Liconic incubator (Mauren Principality of Liechtenstein) and incubated for 24 h. Subsequently, cells were washed twice as described above to remove external cholesterol. Next, 50 μl of the efflux medium was added, which contained recombinant apoE4 at a concentration of 40 μg/ml in transparent RPMI 1640 (no phenol red), again using Washer Dispenser II (GNF, San Diego, Calif., USA). The positive control contained the ABCA1 activator, CS-6253 (120 μg/ml) in addition to the acceptor (apoE4). After 7 hr of efflux, the medium was transferred to new plates, using the Bravo Automated Liquid Handling system (Agilent, Santa Clara, Calif., USA). Fluorescence polarization (FP) and fluorescence intensity (FI) of the medium were measured in a PheraStar FS plate reader (BMG Labtech, Ortenberg, Germany).
The apoE4 lipidation Assay is based on measurements of the ability of astrocytes to translocate fluorescently labelled cholesterol to recombinant non lipidated apoE4 and on the extent to which this effect is enhanced by treatment with each of the screened compounds (FIG. 2, 3). This assay is an adaptation of previous studies of cholesterol translocation from labelled astrocytes to external acceptors such as apoE4 [16], except that in order to differentiate between gene expression related effects and direct biochemical effects of the hits on ABCA1, the incubations of the HTS with the cells was limited to 8 hours. The extent to which the cells secret the labelled cholesterol and transfer it to non-lipidated apoE4 was determined by regular fluorescence as well as by fluorescence polarization microscopy. The latter technique in this context is used due to its sensitivity to particle size which decreases the background signal by differentiating between free and particle bound released cholesterol.
The assay was characterized biochemically and it was shown that translocation of labelled cholesterol to apoE4 is time and concentration dependent (FIG. 4) and was increased by the positive control ABCA1 agonistic 26mer peptide CS-6253 [4] (FIG. 5). The assay was used for high throughput screening (HTS) and selection of positive hits. 50,000 compounds from commercially available libraries were screened utilizing the double criteria of a signal greater than 3 standard deviations from the mean of all of the screened compounds, and being similar or greater than the apoE4 lipidation driven by the ABCA1 agonistic peptide CS-6253. Additional criteria included the tier drug ability value with tier 1 being best and tier 3 being least suitable, as well as a hydrophobicity value of 2<log P<5 value. This yielded 14 hits, designated Compounds #1-#14 (FIG. 6).
`Cc1nn(CC(=O)c2ccc(Br)s2)c(C)c1[N+](=O)[O-]` [Hit #3]: the EC50 was above 44.8 µM.
Still for that read-out and setting: in the case of `CC(C)(C)C(=O)COC(=O)c1ccccc1SCc1cc(-c2ccco2)on1` [Hit #4] it was 28.3 µM; in that of `O=[N+]([O-])c1ccc(N2CCCCC2)c2nonc12` [Hit #7], 8.56 µM; in that of `C[C@]12CC[C@@H](O)CC1CCC1C2CC[C@](C)(C(=O)O)C1/C=C1/Nc2ccccc2C1=O` (some centres unmarked) [Hit #12], above 44.8 µM.
Same read-out and setting: to `CSC(SC)=C1CC/C(=C/c2ccc(N(C)C)cc2)C1=O` [Hit #14] belongs above 44.8 µM.

The series is the same for the next values; noted with them: Astrocyte; Human astrocytes, efflux to apoE4; Table 4.
As to `Cc1nn(CC(=O)c2ccc(Br)s2)c(C)c1[N+](=O)[O-]` [Hit #3], the pEC50 was below 4.35.
Still for that read-out and setting: in the case of `CC(C)(C)C(=O)COC(=O)c1ccccc1SCc1cc(-c2ccco2)on1` [Hit #4] it was 4.55; in that of `O=[N+]([O-])c1ccc(N2CCCCC2)c2nonc12` [Hit #7], 5.07.
Still for that read-out and setting: to `C[C@]12CC[C@@H](O)CC1CCC1C2CC[C@](C)(C(=O)O)C1/C=C1/Nc2ccccc2C1=O` (some centres unmarked) [Hit #12] belongs below 4.35; to `CSC(SC)=C1CC/C(=C/c2ccc(N(C)C)cc2)C1=O` [Hit #14], below 4.35.

The series is the same for the next values; noted with them: test compounds 50 μM.
For `O=[N+]([O-])c1ccc(N2CCCCC2)c2nonc12` [Hit #7], the “Stimulation of cholesterol efflux from human astrocytes to apoE4” value is listed as “activates cholesterol efflux”.

For another series, the target named is T1, ABCA1 (Homo sapiens, UniProt O95477).
T1 construct: The proteins used in these experiments were Extra-Cellular Domain 1 (ECD1) of ABCA1 and Extra-Cellular Domain 2 (ECD2); purchased Biomatick
T1 sequence (O95477 43-639 limits assumed): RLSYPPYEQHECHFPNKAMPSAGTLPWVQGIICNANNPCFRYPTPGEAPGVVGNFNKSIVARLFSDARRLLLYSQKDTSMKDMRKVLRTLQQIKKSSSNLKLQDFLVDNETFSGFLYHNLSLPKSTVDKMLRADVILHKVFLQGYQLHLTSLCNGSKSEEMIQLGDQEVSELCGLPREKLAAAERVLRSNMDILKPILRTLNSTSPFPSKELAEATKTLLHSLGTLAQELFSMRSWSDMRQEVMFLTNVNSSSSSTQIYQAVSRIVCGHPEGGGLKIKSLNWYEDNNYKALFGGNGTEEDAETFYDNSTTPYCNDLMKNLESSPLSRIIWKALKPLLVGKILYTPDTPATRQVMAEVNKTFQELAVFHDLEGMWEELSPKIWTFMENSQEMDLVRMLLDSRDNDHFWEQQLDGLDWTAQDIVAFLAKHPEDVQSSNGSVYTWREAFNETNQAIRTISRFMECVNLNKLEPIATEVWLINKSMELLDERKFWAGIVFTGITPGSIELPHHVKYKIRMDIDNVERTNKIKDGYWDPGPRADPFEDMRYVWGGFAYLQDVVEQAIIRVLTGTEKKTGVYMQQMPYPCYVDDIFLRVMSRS
Put plainly: Target recognition: binding to ABCA1 (summary of labelled and label free MST).
Settings: not given
On the procedure: (§1) Microscale thermophoresis (MST) measurements. MST measurements of the binding of the HTS hits to the extracellular domain (ECD) of ABCA1 were performed by two complimentary methods utilizing either fluorescently labeled proteins or the endogenous fluorescence of unlabeled proteins. This was pursued as follows:
(§2) The experiments were performed with the purified extracellual domains 1 (ECD1) and 2 (ECD2) of ABCA1 [18]. Two complementary MST tests were performed, in which either the proteins were labeled with a fluorescence moiety or the endogenous fluorescence of the unlabeled proteins was monitored).
A. HTS Screening and Target Recognition • 1.
For the molecule `Cc1nn(CC(=O)c2ccc(Br)s2)c(C)c1[N+](=O)[O-]` [Hit #3], the “MST binding to ECD1” value is “bind saturably to ECD1”.
Still for that read-out and setting: to `CC(C)(C)C(=O)COC(=O)c1ccccc1SCc1cc(-c2ccco2)on1` [Hit #4] belongs “bind saturably to ECD1”.
Still for that read-out and setting: in the case of `O=[N+]([O-])c1ccc(N2CCCCC2)c2nonc12` [Hit #7] it was “scored positively”.

A further series has as its target T2, ECD1 of ABCA1 (Homo sapiens, UniProt O95477).
T2 construct: The proteins used in these experiments were Extra-Cellular Domain 1 (ECD1) of ABCA1 and Extra-Cellular Domain 2 (ECD2); purchased Biomatick
T2 sequence (O95477 43-639 limits assumed): T1 sequence (O95477 43-639 limits assumed)
Put plainly: Microscale thermophoresis (MST) binding, labelled protein.
Settings: not given
On the procedure:
as §1
The buffers of protein samples were exchanged on a desalting PD-10 column to MST labelling buffer (Nanotemper Technologies, NT.115). Each protein was labeled with Alexa Fluor 650 succinimidyl-ester (Thermo Fisher Scientific) in 3-fold excess and then incubated for 1 hr in the dark at room temperature. Excess dye was removed by PD-10 desalting columns. […] Protein-compound interactions were analyzed by microscale thermophoresis. […] Hits were prepared at the highest concentration soluble in MST buffer (Nanotemper)+10% DMSO. Next, hits were diluted by 2 in 16 consecutive tubes of 10 μl per tube. Then, 10 μl of the protein were added to each tube and centrifuged in 12,000 rpm for 10 minutes. Finally, the samples were loaded to the capillaries and were inserted to the MST machine. Experiments were performed on a microMonolith NT.115 Blue/Red (NanoTemper Technologies) in duplicates. Measurements were performed in standard glass capillaries (NanoTemper Technologies). […] All dissociation constants (KD) were calculated to a binding model assuming a 1:1 stoichiometry per binding partner.
as §2
Background: In MST a laser heats a spot of the sample, and binding alters the fluorescence response.
With `Cc1nn(CC(=O)c2ccc(Br)s2)c(C)c1[N+](=O)[O-]` [Hit #3], the “Binding to ECD1 (Labelled MST) Amplitude” value is recorded as 10.85 a.u and the pKd was 3.56.
Regarding `CC(C)(C)C(=O)COC(=O)c1ccccc1SCc1cc(-c2ccco2)on1` [Hit #4], the “Binding to ECD1 (Labelled MST) Amplitude” value was 13.63 a.u and the pKd is 4.57.
As to `O=[N+]([O-])c1ccc(N2CCCCC2)c2nonc12` [Hit #7], the “Binding to ECD1 (Labelled MST) Amplitude” value is 22.05 a.u.
Take `C[C@]12CC[C@@H](O)CC1CCC1C2CC[C@](C)(C(=O)O)C1/C=C1/Nc2ccccc2C1=O` (some centres unmarked) [Hit #12]: the “Binding to ECD1 (Labelled MST) Amplitude” value is given as 9.05 a.u and the pKd is 4.96.
For `CSC(SC)=C1CC/C(=C/c2ccc(N(C)C)cc2)C1=O` [Hit #14], the “Binding to ECD1 (Labelled MST) Amplitude” value is given as 0 a.u.
